What was measured:
FLK-1 receptor = target: T1, FLK-1 receptor (Mus musculus, UniProt P35918); assay: ELISA assay measuring the kinase activity of the FLK-1 receptor in cells engineered to express FLK-1; assay type: cell-based; conditions: FLK-1 expressing NIH3T3 C7#3 cells, VEGF stimulated; for inhibition at 100 µM: compound at 100 μM; for IC50: cells without % or + sign
T1 construct: expressed in transfected cells; host or cells: NIH3T3 C7#3 cells
Experimental: An ELISA assay was conducted to measure the kinase activity of the FLK-1 receptor and more specifically, the inhibition or activation of TK activity on the FLK-1 receptor. Specifically, the following assay was conducted to measure kinase activity of the FLK-1 receptor in cells genetically engineered to express FLK-1.
(11) NIH3T3 C7#3 Cells (FLK-1 expressing cells);
The following protocol was used for conducting the assay:
1. Coat Corning 96-well elisa plates with 1.0 μg per well Cappel Anti-rabbit IgG antibody in 0.1 M Na2CO3 pH 9.6. Bring final volume to 150 μL per well. Coat plates overnight at 4° C. Plates can be kept up to two weeks when stored at 4° C.
2. Grow cells in Growth media (DMEM, supplemental with 2.0 mM L-Glutamine, 10% FBS) in suitable culture dishes until confluent at 37° C., 5% CO2.
3. Harvest cells by trypsinization and seed in Corning 25850 polystyrene 96-well roundbottom cell plates, 25.000 cells/well in 200 μL of growth media.
4. Grow cells at least one day at 37° C., 5% CO2.
5. Wash cells with D-PBS 1×.
6. Add 200 μL/well of starvation media (DMEM, 2.0 mM 1-Glutamine, 0.1% FBS). Incubate overnight at 37° C., 5% CO2.
7. Dilute Compounds 1:20 in polypropylene 96 well plates using starvation media. Dilute dimethylsulfoxide 1:20 for use in control wells.
8. Remove starvation media from 96 well cell culture plates and add 162 μL of fresh starvation media to each well.
9. Add 18 μL of 1:20 diluted Compound dilution (from step 7) to each well plus the 1:20 dimethylsulfoxide dilution to the control wells (+/−VEGF), for a final dilution of 1:200 after cell stimulation. Final dimethylsulfoxide is 0.5%. Incubate the plate at 37° C., 5% CO2 for two hours.
10. Remove unbound antibody from ELISA plates by inverting plate to remove liquid. Wash 3 times with TBSW+0.5% ethanolamine, pH 7.0. Pat the plate on a paper towel to remove excess liquid and bubbles.
11. Block plates with TBSW+0.5% Ethanolamine, pH 7.0, 150 μL per well. Incubate plate thirty minutes while shaking on a microliter plate shaker.
12. Wash plate 3 times as described in step 10.
13. […] Bring final volume to 150 μL/well with TBSW+0.5% ethanolamine pH 7.0. Incubate plate for thirty minutes while shaking.
14. Add 180 μL starvation medium to the cells and stimulate cells with 20 μL/well 10.0 mM sodium ortho vanadate and 500 ng/mL VEGF (resulting in a final concentration of 1.0 mM sodium ortho vanadate and 50 ng/mL VEGF per well) for eight minutes at 37° C., 5% CO2. Negative control wells receive only starvation medium.
15. After eight minutes, media should be removed from the cells and washed one time with 200 μL/well PBS.
16. Lyse cells in 150 μL/well HNTG while shaking at room temperature for five minutes. HNTG formulation includes sodium ortho vanadate, sodium pyro phosphate and EDTA.
17. Wash ELISA plate three times as described in step 10.
18. Transfer cell lysates from the cell plate to ELISA plate and incubate while shaking for two hours. To transfer cell lysate pipette up and down while scrapping the wells.
19. Wash plate three times as described in step 10.
20. Incubate ELISA plate with 0.02 μg/well UB40 in TBSW+05% ethanolamine. Bring final volume to 150 μL/well. Incubate while shaking for 30 minutes.
21. Wash plate three times as described in step 10.
22. Incubate ELISA plate with 1:10,000 diluted EIA grade goat anti-mouse IgG conjugated horseradish peroxidase in TBSW+0.5% ethanolamine, pH 7.0. Bring final volume to 150 μL/well. Incubate while shaking for thirty minutes.
23. Wash plate as described in step 10.
24. Add 100 μL of ABTS/H2O2 solution to well. Incubate ten minutes while shaking.
25. Add 100 μL of 0.2 M HCl for 0.1 M HCl final to stop the color development reaction. Shake 1 minute at room temperature. Remove bubbles with slow stream of air and read the ELISA plate in an ELISA plate reader at 410 nm.
(§1) The IC50 values were measured for several of the compounds of the invention.

src protein kinase = target: T2, src protein kinase (Gallus gallus, UniProt P00523); assay: Assay measuring SRC protein kinase activity (phosphorylation of a biotinylated peptide); assay type: biochemical; conditions: src from transformed yeast lysate, 5 μM ATP; for inhibition at 100 µM: compound at 100 μM; for IC50: cells without %
T2 construct: made in house; host or cells: Schizosaccharomyces pombe strain SP200, pRSP expression plasmids
Experimental: This assay is used to determine src protein kinase activity measuring phosphorylation of a biotinylated peptide as the readout.
a. Yeast transformed with src.
b. Cell lysates: Yeast cells expressing src are pelleted, washed once with water, re-pelleted and stored at −80° C. until use.
c. N-terminus biotinylated […] is prepared by standard procedures well known to those skilled in the art.
h. […] S. Pombe strain SP200 (h-s leul.32 ura4 ade21O) was grown as described and transformations were pRSP expression plasmids were done by the lithium acetate method (Superti-Furga, supra). Cells were grown in the presence of 1 μM thiamine to repress expression from the nmtl promoter or in the absence of thiamine to induce expression.
a. Preparation of src coated ELISA plate.
1. Coat ELISA plate with 0.5 μg/well anti-src mab in 100 μL of pH 9.6 sodium carbonate buffer at 4° C. overnight.
2. Wash wells once with PBS.
3. Block plate with 0.15 mL 5% milk in PBS for 30 min. at room temperature.
4. Wash plate 5× with PBS.
5. Add 10 μg/well of src transformed yeast lysates diluted in Lysis Buffer (0.1 mL total volume per well). (Amount of lysate may vary between hatches.) Shake plate for 20 minutes at room temperature.
b. Preparation of phosphotyrosine antibody-coated ELISA plate.
1. 4G10 plate: coat 0.5 μg/well 4G10 in 100 μL PBS overnight at 4° C. and block with 150 μL of 5% milk in PBS for 30 minutes at room temperature.
c. Kinase assay procedure.
1. Remove unbound proteins from steps 1-7, above, and wash plates 5× with PBS.
2. Add 0.08 mL Kinase Reaction Mixture per well (containing 10 μL of 10×Kinase Buffer and 10 μM (final concentration) biotin-[…] per well diluted in water.
3. Add 10 μL of compound diluted in water containing 10% DMSO and pre-incubate for 15 minutes at room temperature.
4. Start kinase reaction by adding 10 μL/well of 0.05 mM ATP in water (5 μM ATP final).
5. Shake ELISA plate for 15 min. at room temperature.
6. Stop kinase reaction by adding 10 μL of 0.5 M EDTA per well.
7. Transfer 90 μL supernatant to a blocked 4G10 coated ELISA plate from section B, above.
8. Incubate for 30 min. while shaking at room temperature.
9. Wash plate 5× with TBST.
10. Incubate with Vectastain ELITE ABC reagent (100 μL/well) for 30 min. at room temperature.
11. Wash the wells 5× with TBST.
12. Develop with Turbo TMB.
as §1

T1 sequence (P35918 20-1345): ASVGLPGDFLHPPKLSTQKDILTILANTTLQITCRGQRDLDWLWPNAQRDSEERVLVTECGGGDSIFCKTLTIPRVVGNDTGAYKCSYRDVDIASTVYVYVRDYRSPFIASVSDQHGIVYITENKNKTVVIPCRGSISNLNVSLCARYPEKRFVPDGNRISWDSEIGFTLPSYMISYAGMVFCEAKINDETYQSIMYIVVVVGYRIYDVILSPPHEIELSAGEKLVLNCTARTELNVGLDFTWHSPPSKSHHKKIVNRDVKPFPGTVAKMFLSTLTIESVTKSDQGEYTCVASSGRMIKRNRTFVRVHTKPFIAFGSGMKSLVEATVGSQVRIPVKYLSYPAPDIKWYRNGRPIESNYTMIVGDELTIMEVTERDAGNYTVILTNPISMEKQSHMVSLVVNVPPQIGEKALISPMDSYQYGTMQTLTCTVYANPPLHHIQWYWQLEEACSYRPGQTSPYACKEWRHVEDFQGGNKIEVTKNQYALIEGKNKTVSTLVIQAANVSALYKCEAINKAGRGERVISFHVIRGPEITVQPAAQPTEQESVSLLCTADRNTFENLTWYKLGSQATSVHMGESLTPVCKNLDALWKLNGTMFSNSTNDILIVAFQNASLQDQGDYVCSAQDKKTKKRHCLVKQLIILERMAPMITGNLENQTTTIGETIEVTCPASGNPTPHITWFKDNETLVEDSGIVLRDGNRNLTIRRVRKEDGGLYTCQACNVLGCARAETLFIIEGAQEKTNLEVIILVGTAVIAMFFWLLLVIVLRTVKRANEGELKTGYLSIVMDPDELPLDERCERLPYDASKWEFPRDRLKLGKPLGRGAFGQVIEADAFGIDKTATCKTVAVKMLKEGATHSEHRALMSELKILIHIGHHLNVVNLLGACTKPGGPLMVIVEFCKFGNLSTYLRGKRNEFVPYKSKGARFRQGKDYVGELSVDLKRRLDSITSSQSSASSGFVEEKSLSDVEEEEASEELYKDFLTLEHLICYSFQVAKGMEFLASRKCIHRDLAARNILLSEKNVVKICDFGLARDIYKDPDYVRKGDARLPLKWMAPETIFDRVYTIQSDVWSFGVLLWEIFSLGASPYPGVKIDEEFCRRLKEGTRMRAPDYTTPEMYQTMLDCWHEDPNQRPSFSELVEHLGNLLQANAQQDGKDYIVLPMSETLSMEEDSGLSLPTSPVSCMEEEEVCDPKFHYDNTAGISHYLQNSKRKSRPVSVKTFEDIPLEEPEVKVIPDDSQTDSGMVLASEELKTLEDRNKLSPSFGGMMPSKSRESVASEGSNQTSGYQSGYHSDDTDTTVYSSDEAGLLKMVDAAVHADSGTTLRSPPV

Row | Compound | inhibition at 100 µM (FLK-1 receptor) | inhibition at 100 µM (src protein kinase) | IC50 (FLK-1 receptor) | IC50 (src protein kinase)
1 | Cc1ccc2c(c1)/C(=C/c1[nH]c3ccccc3c1C)C(=O)N2 [IN-001, 5-Methyl-3-(3-methyl-1H-indol-2-ylmethylene)-1,3-dihydro-indol-2-one] | 10.7% | -62% |  | 
2 | Cc1c(/C=C2\C(=O)Nc3ccc(S(N)(=O)=O)cc32)[nH]c2ccccc12 [IN-002, 3-(3-Methyl-1H-indol-2-ylmethylene)-2-oxo-2,3-dihydro-1H-indole-5-sulfonic acid amide] | 8.7% | -3.5% |  | 
3 | Cc1c(/C=C2\C(=O)Nc3ccc(C(=O)O)cc32)[nH]c2ccccc12 [IN-005, 3-(3-Methyl-1H-indol-2-ylmethylene)-2-oxo-2,3-dihydro-1H-indole-5-carboxylic acid] |  |  | 4.2 µM | 
4 | CC(=O)c1ccc2c(c1)C(=Cc1[nH]c3ccccc3c1C)C(=O)N2 [IN-006, 5-Acetyl-3-(3-methyl-1H-indol-2-ylmethylene)-1,3-dihydro-indol-2-one] | 10.4% |  |  | > 100 µM
5 | CC(=O)c1ccc2c(c1)C(=Cc1cc3ccccc3[nH]1)C(=O)N2 [IN-007, 5-Acetyl-3-(1H-indol-2-ylmethylene)-1,3-dihydro-indol-2-one] | 30% | 12.4% |  | 
6 | NS(=O)(=O)c1ccc2c(c1)/C(=C/c1cc3ccccc3[nH]1)C(=O)N2 [IN-008, 3-(1H-Indol-2-ylmethylene)-2-oxo-2,3-dihydro-1H-indole-5-sulfonic acid amide] | 23% | -11% |  | 
7 | Nc1ccc2c(c1)/C(=C/c1cc3ccccc3[nH]1)C(=O)N2 [IN-009, 5-Amino-3-(1H-indol-2-ylmethylene)-1,3-dihydro-indol-2-one] |  |  | 1.53 µM | 9 µM
8 | O=C1Nc2ccc(C(=O)O)cc2/C1=C/c1cc2ccccc2[nH]1 [IN-010, 3-(1H-Indol-2-ylmethylene)-2-oxo-2,3-dihydro-1H-indole-5-carboxylic acid] |  | 36.4% | 2.1 µM | 
9 | O=C1Nc2cc(Cl)ccc2/C1=C/c1cc2ccccc2[nH]1 [IN-011, 6-Chloro-3-(1H-indol-2-ylmethylene)-1,3-dihydro-indol-2-one] | 6.1% | -38.5% |  | 
10 | O=C1Nc2ccccc2/C1=C/c1cc2ccccc2[nH]1 [IN-012, 3-(1H-Indol-2-ylmethylene)-1,3-dihydro-indol-2-one] | 17.6% | -12% |  | 
11 | O=C1Nc2ccc(Cl)cc2/C1=C/c1cc2ccccc2[nH]1 [IN-013, 5-chloro-3-(1H-indol-2-ylmethylene)-1,3-dihydro-indol-2-one] | 17% | -0.6% |  | 
12 | Cc1c(/C=C2\C(=O)Nc3ccccc32)[nH]c2ccccc12 [IN-016, 3-(3-Methyl-1H-indol-2-ylmethylene)-1,3-dihydro-indol-2-one] | 26% | 20.2% |  | 
13 | Cc1c(/C=C2\C(=O)Nc3ccc(Cl)cc32)[nH]c2ccccc12 [IN-017, 5-Chloro-3-(3-methyl-1H-indol-2-ylmethylene)-1,3-dihydro-indol-2-one] | 20.4% | 21.4% |  | 
14 | Cc1c(/C=C2\C(=O)Nc3ccc(Br)cc32)[nH]c2ccccc12 [IN-018, 5-Bromo-3-(3-methyl-1H-indol-2-ylmethylene)-1,3-dihydro-indol-2-one] | 15.8% | 19.5% |  | 
15 | Cc1cccc2c1/C(=C/c1[nH]c3ccccc3c1C)C(=O)N2 [IN-019, 4-Methyl-3-(3-methyl-1H-indol-2-ylmethylene)-1,3-dihydro-indol-2-one] | 10.7% | -6.5% |  | 

— patent US6680335B2, “Methods of modulating protein tyrosine kinase function with substituted indolinone compounds” (Sugen, Inc., priority 1998, dated 2004)
